The source of these data is the supplement of paper PMC10307832.

What all share (assay): relative viability (nuclei count vs DMSO), 5 days (fraction); higher = more cells survive
Compound in test [1]: CC(C)N(CCCNC(=O)Nc1ccc(C(C)(C)C)cc1)C[C@H]1O[C@@H](n2ccc3c(N)ncnc32)[C@H](O)[C@@H]1O + CS(=O)(=O)N1CCN(Cc2cc3nc(-c4cccc5[nH]ncc45)nc(N4CCOCC4)c3s2)CC1 [Pictilisib] (partner 1 µM)
An outline of the steps: (§1)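 For relative viability, nuclei counts in treated wells were divided by those in vehicle wells. Lung cancer cell lines had been pin-tool dosed in 1536-well plates the day after seeding and cultured for 5 days, then fixed and stained in one step (final 0.05% Triton X-100, 1% formaldehyde, 1 ug/ml Hoechst) and imaged at 4×. Doses were one drug alone or a fixed anchor-drug dose plus five library-drug doses (not always all listed) in √10 steps, and values are duplicate-plate medians.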

Compound in test [2]: CC(C)N(CCCNC(=O)Nc1ccc(C(C)(C)C)cc1)C[C@H]1O[C@@H](n2ccc3c(N)ncnc32)[C@H](O)[C@@H]1O + CCNC(=O)c1noc(-c2cc(C(C)C)c(O)cc2O)c1-c1ccc(CN2CCOCC2)cc1 [Luminespib] (partner 0.01 µM)
Summed up: as §1

Compound in the test “Shikonin + Dasatinib”: CC(C)=CC[C@@H](O)C1=CC(=O)c2c(O)ccc(O)c2C1=O [Shikonin] + Cc1nc(Nc2ncc(C(=O)Nc3c(C)cccc3Cl)s2)cc(N2CCN(CCO)CC2)n1 [Dasatinib] (partner 0.075 µM)
Summed up: as §1

Compound in the test “Shikonin + Pemetrexed”: CC(C)=CC[C@@H](O)C1=CC(=O)c2c(O)ccc(O)c2C1=O [Shikonin] + Nc1nc2[nH]cc(CCc3ccc(C(=O)N[C@@H](CCC(=O)O)C(=O)O)cc3)c2c(=O)[nH]1 [Pemetrexed] (partner 0.2 µM)
An outline of the steps:
as §1

UMC-11: the relative viability in test [1] (first compound 0.08 µM) came to 0.683; in test [1] (first compound 0.253 µM) it was 0.662; in test [1] (first compound 0.8 µM) it was 0.783; in test [1] (first compound 2.53 µM), 0.805; in test [1] (first compound 8 µM), 0.745; in test [2] (first compound 0.08 µM), 1.01. In addition, the relative viability in test [2] (first compound 0.253 µM) was 0.992; in test [2] (first compound 0.8 µM), 0.915; in test [2] (first compound 2.53 µM) it was 1; in test [2] (first compound 8 µM), 0.977; with Shikonin + Dasatinib (first compound 0.01 µM), 0.476; in the test with Shikonin + Dasatinib (first compound 0.1 µM), 0.49. Further, the relative viability is 0.459 with Shikonin + Dasatinib (first compound 0.3162 µM); 0.503 in the test with Shikonin + Dasatinib (first compound 1 µM); 0.813 with Shikonin + Pemetrexed (first compound 0.01 µM); 0.942 with Shikonin + Pemetrexed (first compound 0.1 µM); 0.836 with Shikonin + Pemetrexed (first compound 0.3162 µM); 0.793 with Shikonin + Pemetrexed (first compound 1 µM).
